Experimental data reported in PubChem BioAssay (NCI).
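Tested at 5 concentrations; 48 h exposure; 96-well plates; endpoints linearly interpolated, else capped at highest concentration. At the GI50, growth is halved. The concentration for full growth arrest is given as TGI.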

How the values were obtained:
Assay in all cases: inhibition of tumour cell growth, NCI panel, 48 h
UO-31 renal = system: UO-31 renal
SF-268 CNS = system: SF-268 CNS
CCRF-CEM leukemia = system: CCRF-CEM leukemia
DU-145 prostate = system: DU-145 prostate
SNB-75 CNS = system: SNB-75 CNS
UACC-62 melanoma = system: UACC-62 melanoma
HCC-2998 colon = system: HCC-2998 colon
TK-10 renal = system: TK-10 renal
LOX IMVI melanoma = system: LOX IMVI melanoma
M14 melanoma = system: M14 melanoma
HL-60(TB) leukemia = system: HL-60(TB) leukemia
U251 CNS = system: U251 CNS
HCT-15 colon = system: HCT-15 colon
T-47D breast = system: T-47D breast
BT-549 breast = system: BT-549 breast
MOLT-4 leukemia = system: MOLT-4 leukemia
HT29 colon = system: HT29 colon
SN12C renal = system: SN12C renal
OVCAR-4 ovarian = system: OVCAR-4 ovarian
OVCAR-5 ovarian = system: OVCAR-5 ovarian
SR leukemia = system: SR leukemia
OVCAR-8 ovarian = system: OVCAR-8 ovarian
EKVX NSCLC = system: EKVX NSCLC
HOP-92 NSCLC = system: HOP-92 NSCLC
SK-MEL-5 melanoma = system: SK-MEL-5 melanoma
NCI-H226 lung = system: NCI-H226 lung
COLO 205 colon = system: COLO 205 colon
UACC-257 melanoma = system: UACC-257 melanoma
786-0 renal = system: 786-0 renal
A549 NSCLC = system: A549 NSCLC
K-562 leukemia = system: K-562 leukemia
NCI-H23 lung = system: NCI-H23 lung
HOP-62 NSCLC = system: HOP-62 NSCLC
SF-295 CNS = system: SF-295 CNS
MDA-MB-231 breast = system: MDA-MB-231 breast
NCI-H522 lung = system: NCI-H522 lung
NCI/ADR-RES ovarian = system: NCI/ADR-RES ovarian
PC-3 prostate = system: PC-3 prostate
SK-MEL-2 melanoma = system: SK-MEL-2 melanoma
ACHN renal = system: ACHN renal
MDA-MB-435 = system: MDA-MB-435
IGROV1 ovarian = system: IGROV1 ovarian
A498 renal = system: A498 renal
MCF7 breast = system: MCF7 breast
SF-539 CNS = system: SF-539 CNS
NCI-H460 lung = system: NCI-H460 lung
SNB-19 CNS = system: SNB-19 CNS
HCT-116 colon = system: HCT-116 colon
SW-620 colon = system: SW-620 colon
SK-OV-3 ovarian = system: SK-OV-3 ovarian
RXF 393 renal = system: RXF 393 renal
RPMI-8226 leukemia = system: RPMI-8226 leukemia
MALME-3M melanoma = system: MALME-3M melanoma
HS 578T breast = system: HS 578T breast
CAKI-1 renal = system: CAKI-1 renal
KM12 colon = system: KM12 colon
SK-MEL-28 melanoma = system: SK-MEL-28 melanoma

**Q.** With `C#Cc1ccc(C(=O)NCc2ccc(/C=C/C(=O)c3nccn3C)cc2)cc1` as the molecule, how does the GI50 (UO-31 renal) read?
**A.** 3.91 µM

**Q.** And the TGI (UO-31 renal)?
**A.** > 14.3 µM

**Q.** What about the GI50 (SF-268 CNS) of the same molecule?
**A.** 3.36 µM

**Q.** What about the TGI (SF-268 CNS) of the same molecule?
**A.** 12.2 µM

**Q.** What about the GI50 (CCRF-CEM leukemia) of the same molecule?
**A.** 3.68 µM

**Q.** And the TGI (CCRF-CEM leukemia)?
**A.** > 14.3 µM

**Q.** And the GI50 (DU-145 prostate)?
**A.** 4.83 µM

**Q.** What about the TGI (DU-145 prostate) of the same molecule?
**A.** > 14.3 µM

**Q.** And the GI50 (SNB-75 CNS)?
**A.** 2.19 µM

**Q.** And the TGI (SNB-75 CNS)?
**A.** 10.7 µM

**Q.** What about the GI50 (UACC-62 melanoma) of the same molecule?
**A.** 6.27 µM

**Q.** What about the TGI (UACC-62 melanoma) of the same molecule?
**A.** > 14.3 µM

**Q.** And the GI50 (HCC-2998 colon)?
**A.** 3.32 µM

**Q.** And the TGI (HCC-2998 colon)?
**A.** 10.7 µM

**Q.** And the GI50 (TK-10 renal)?
**A.** 5.42 µM

**Q.** And the TGI (TK-10 renal)?
**A.** > 14.3 µM

**Q.** And the GI50 (LOX IMVI melanoma)?
**A.** 0.543 µM

**Q.** What about the TGI (LOX IMVI melanoma) of the same molecule?
**A.** 2.4 µM

**Q.** And the GI50 (M14 melanoma)?
**A.** 7.91 µM

**Q.** And the TGI (M14 melanoma)?
**A.** > 14.3 µM

**Q.** And the GI50 (HL-60(TB) leukemia)?
**A.** 3.5 µM

**Q.** What about the TGI (HL-60(TB) leukemia) of the same molecule?
**A.** > 14.3 µM

**Q.** What about the GI50 (U251 CNS) of the same molecule?
**A.** 2.15 µM

**Q.** What about the TGI (U251 CNS) of the same molecule?
**A.** > 14.3 µM

**Q.** What about the GI50 (HCT-15 colon) of the same molecule?
**A.** 2.39 µM

**Q.** And the TGI (HCT-15 colon)?
**A.** > 14.3 µM

**Q.** And the GI50 (T-47D breast)?
**A.** 6 µM

**Q.** What about the TGI (T-47D breast) of the same molecule?
**A.** > 14.3 µM

**Q.** What about the GI50 (BT-549 breast) of the same molecule?
**A.** 4.06 µM

**Q.** And the TGI (BT-549 breast)?
**A.** > 14.3 µM

**Q.** What about the GI50 (MOLT-4 leukemia) of the same molecule?
**A.** 4.2 µM

**Q.** And the TGI (MOLT-4 leukemia)?
**A.** > 14.3 µM

**Q.** What about the GI50 (HT29 colon) of the same molecule?
**A.** 4.61 µM

**Q.** What about the TGI (HT29 colon) of the same molecule?
**A.** > 14.3 µM

**Q.** And the GI50 (SN12C renal)?
**A.** 4.34 µM

**Q.** And the TGI (SN12C renal)?
**A.** > 14.3 µM

**Q.** What about the GI50 (OVCAR-4 ovarian) of the same molecule?
**A.** 5.71 µM

**Q.** What about the TGI (OVCAR-4 ovarian) of the same molecule?
**A.** > 14.3 µM

**Q.** And the GI50 (OVCAR-5 ovarian)?
**A.** 4.75 µM

**Q.** And the TGI (OVCAR-5 ovarian)?
**A.** > 14.3 µM

**Q.** What about the GI50 (SR leukemia) of the same molecule?
**A.** 0.93 µM

**Q.** And the TGI (SR leukemia)?
**A.** > 14.3 µM

**Q.** And the GI50 (OVCAR-8 ovarian)?
**A.** 3.11 µM

**Q.** And the TGI (OVCAR-8 ovarian)?
**A.** 8.27 µM

**Q.** What about the GI50 (EKVX NSCLC) of the same molecule?
**A.** 5.22 µM

**Q.** And the TGI (EKVX NSCLC)?
**A.** > 14.3 µM

**Q.** And the GI50 (HOP-92 NSCLC)?
**A.** 3.77 µM

**Q.** And the TGI (HOP-92 NSCLC)?
**A.** > 14.3 µM

**Q.** And the GI50 (SK-MEL-5 melanoma)?
**A.** > 14.3 µM

**Q.** What about the TGI (SK-MEL-5 melanoma) of the same molecule?
**A.** > 14.3 µM

**Q.** What about the GI50 (NCI-H226 lung) of the same molecule?
**A.** 5.03 µM

**Q.** What about the TGI (NCI-H226 lung) of the same molecule?
**A.** > 14.3 µM

**Q.** What about the GI50 (COLO 205 colon) of the same molecule?
**A.** 3.6 µM

**Q.** What about the TGI (COLO 205 colon) of the same molecule?
**A.** 12.7 µM

**Q.** And the GI50 (UACC-257 melanoma)?
**A.** > 14.3 µM

**Q.** What about the TGI (UACC-257 melanoma) of the same molecule?
**A.** > 14.3 µM

**Q.** And the GI50 (786-0 renal)?
**A.** 4.48 µM

**Q.** What about the TGI (786-0 renal) of the same molecule?
**A.** > 14.3 µM

**Q.** What about the GI50 (A549 NSCLC) of the same molecule?
**A.** 4.6 µM

**Q.** What about the TGI (A549 NSCLC) of the same molecule?
**A.** > 14.3 µM

**Q.** What about the GI50 (K-562 leukemia) of the same molecule?
**A.** 3.21 µM

**Q.** What about the TGI (K-562 leukemia) of the same molecule?
**A.** > 14.3 µM

**Q.** And the GI50 (NCI-H23 lung)?
**A.** 3.48 µM

**Q.** And the TGI (NCI-H23 lung)?
**A.** > 14.3 µM

**Q.** And the GI50 (HOP-62 NSCLC)?
**A.** 4.33 µM

**Q.** What about the TGI (HOP-62 NSCLC) of the same molecule?
**A.** > 14.3 µM

**Q.** And the GI50 (SF-295 CNS)?
**A.** 3.65 µM

**Q.** And the TGI (SF-295 CNS)?
**A.** 13.2 µM

**Q.** And the GI50 (MDA-MB-231 breast)?
**A.** 3.97 µM

**Q.** What about the TGI (MDA-MB-231 breast) of the same molecule?
**A.** > 14.3 µM

**Q.** What about the GI50 (NCI-H522 lung) of the same molecule?
**A.** 6.16 µM

**Q.** What about the TGI (NCI-H522 lung) of the same molecule?
**A.** > 14.3 µM

**Q.** And the GI50 (NCI/ADR-RES ovarian)?
**A.** 3.67 µM

**Q.** And the TGI (NCI/ADR-RES ovarian)?
**A.** > 14.3 µM

**Q.** What about the GI50 (PC-3 prostate) of the same molecule?
**A.** 5.36 µM

**Q.** And the TGI (PC-3 prostate)?
**A.** > 14.3 µM

**Q.** And the GI50 (SK-MEL-2 melanoma)?
**A.** > 14.3 µM

**Q.** What about the TGI (SK-MEL-2 melanoma) of the same molecule?
**A.** > 14.3 µM

**Q.** What about the GI50 (ACHN renal) of the same molecule?
**A.** 4.8 µM

**Q.** And the TGI (ACHN renal)?
**A.** > 14.3 µM

**Q.** And the GI50 (MDA-MB-435)?
**A.** 4.15 µM

**Q.** What about the TGI (MDA-MB-435) of the same molecule?
**A.** > 14.3 µM

**Q.** And the GI50 (IGROV1 ovarian)?
**A.** 3.77 µM

**Q.** And the TGI (IGROV1 ovarian)?
**A.** > 14.3 µM

**Q.** What about the GI50 (A498 renal) of the same molecule?
**A.** 2.12 µM

**Q.** What about the TGI (A498 renal) of the same molecule?
**A.** > 14.3 µM

**Q.** And the GI50 (MCF7 breast)?
**A.** 2.7 µM

**Q.** What about the TGI (MCF7 breast) of the same molecule?
**A.** > 14.3 µM

**Q.** And the GI50 (SF-539 CNS)?
**A.** 2.65 µM

**Q.** And the TGI (SF-539 CNS)?
**A.** 6.24 µM

**Q.** And the GI50 (NCI-H460 lung)?
**A.** 3.24 µM

**Q.** What about the TGI (NCI-H460 lung) of the same molecule?
**A.** 9.03 µM

**Q.** What about the GI50 (SNB-19 CNS) of the same molecule?
**A.** 3.1 µM

**Q.** And the TGI (SNB-19 CNS)?
**A.** > 14.3 µM

**Q.** What about the GI50 (HCT-116 colon) of the same molecule?
**A.** 4.56 µM

**Q.** What about the TGI (HCT-116 colon) of the same molecule?
**A.** > 14.3 µM

**Q.** And the GI50 (SW-620 colon)?
**A.** 4.31 µM

**Q.** And the TGI (SW-620 colon)?
**A.** > 14.3 µM

**Q.** And the GI50 (SK-OV-3 ovarian)?
**A.** 8.34 µM

**Q.** And the TGI (SK-OV-3 ovarian)?
**A.** > 14.3 µM

**Q.** And the GI50 (RXF 393 renal)?
**A.** 3.44 µM

**Q.** And the TGI (RXF 393 renal)?
**A.** 14.2 µM

**Q.** What about the GI50 (RPMI-8226 leukemia) of the same molecule?
**A.** 2.37 µM

**Q.** What about the TGI (RPMI-8226 leukemia) of the same molecule?
**A.** > 14.3 µM

**Q.** What about the GI50 (MALME-3M melanoma) of the same molecule?
**A.** > 14.3 µM

**Q.** What about the TGI (MALME-3M melanoma) of the same molecule?
**A.** > 14.3 µM

**Q.** And the GI50 (HS 578T breast)?
**A.** 4.75 µM

**Q.** What about the TGI (HS 578T breast) of the same molecule?
**A.** > 14.3 µM

**Q.** What about the GI50 (CAKI-1 renal) of the same molecule?
**A.** 5.97 µM

**Q.** What about the TGI (CAKI-1 renal) of the same molecule?
**A.** > 14.3 µM

**Q.** And the GI50 (KM12 colon)?
**A.** 2.67 µM

**Q.** And the TGI (KM12 colon)?
**A.** 8.57 µM

**Q.** What about the GI50 (SK-MEL-28 melanoma) of the same molecule?
**A.** 6.16 µM

**Q.** And the TGI (SK-MEL-28 melanoma)?
**A.** > 14.3 µM
